“Also recorded” adds a separate entry of the source.
How the values were obtained:
[1] = biological target: T1, K581R AR mutant (Homo sapiens, UniProt P10275, K581R); experiment: AR transactivation luciferase assay in HEK 293 cells, K581R; assay type: cell-based; settings: luciferase reporter, FIG. 5D
T1 construct: expressed in transfected cells; host or cells: HEK 293
Experimental: HEK 293 cells were transiently transfected with expression vectors encoding the corresponding mutant AR and an androgen-responsive luciferase reporter gene construct. […] Luciferase activity was then determined.

[2] = tested on: CWR22Rv1 cells; experiment: Cell growth assay (cell numbers), CWR22Rv1; assay type: cell-based; settings: for cell proliferation, combination with enzalutamide (MDV): CWR22Rv1, 0.5 μM + enzalutamide, 48 hours, FIG. 7A; for cell growth: CWR22Rv1, 48 hours, increasing doses of niclosamide/analogs, FIG. 6
[3] = biological target: T2, AR-V7 (Homo sapiens, UniProt P10275); experiment: PSA-luc reporter in LNCaP cells co-transfected with AR-V7; settings: LNCaP cells co-transfected with AR-V7, FIG. 4
T2 sequence (P10275 1-644 isoform P10275-3): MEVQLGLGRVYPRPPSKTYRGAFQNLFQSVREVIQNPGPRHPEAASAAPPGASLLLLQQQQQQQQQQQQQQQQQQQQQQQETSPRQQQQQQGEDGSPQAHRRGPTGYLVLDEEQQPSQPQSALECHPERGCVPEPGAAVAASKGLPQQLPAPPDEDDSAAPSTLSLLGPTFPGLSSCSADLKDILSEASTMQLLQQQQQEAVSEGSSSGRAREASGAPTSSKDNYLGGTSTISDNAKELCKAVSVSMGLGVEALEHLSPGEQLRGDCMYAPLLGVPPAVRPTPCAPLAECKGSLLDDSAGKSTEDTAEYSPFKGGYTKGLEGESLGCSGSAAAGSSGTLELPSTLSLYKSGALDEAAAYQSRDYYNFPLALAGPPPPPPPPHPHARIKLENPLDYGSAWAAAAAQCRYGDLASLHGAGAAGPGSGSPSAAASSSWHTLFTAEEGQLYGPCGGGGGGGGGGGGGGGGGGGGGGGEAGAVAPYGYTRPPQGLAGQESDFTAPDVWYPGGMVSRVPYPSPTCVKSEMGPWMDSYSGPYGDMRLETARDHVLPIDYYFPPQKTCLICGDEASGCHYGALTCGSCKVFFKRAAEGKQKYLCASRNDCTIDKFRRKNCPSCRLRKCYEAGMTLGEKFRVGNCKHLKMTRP
Experimental: The luciferase activity was then determined. * denotes p<0.05.
In addition, the effects on AR transcriptional activity were determined using PSA-luc as a reporter. LNCaP cells were cotransfected with PSA-luc together with or without AR-V7, and treated with the compounds.

[4] = in vivo; settings: male, Sprague-Dawley, rat, in vivo, po, 200 mg/kg
Experimental: Blood samples were obtained at the time points indicated in FIG. 18 (0 minutes, 15 minutes, 30 minutes, 1 hour, 1.5 hours, 2 hours, 4 hours, 6 hours, 8 hours, and 24 hours) and the plasma was isolated for LC-MS analysis.

[5] = tested on: AR; experiment: Western blot of AR expression in CWR22Rv1 cell lysates; assay type: cell-based; settings: CWR22Rv1 cells, FIG. 2A
Experimental: (§1) “AR-Variants” represents a combination of all forms of AR.
(§2) The effects of the synthetic small molecule modulators on AR and AR variant expression were determined. CWR22Ry1 prostate cancer cells were treated with different compounds. Protein lysates were analyzed for AR and AR variant expression.

[6] = tested on: CWR22Rv1 tumor xenografts; experiment: CWR22Rv1 tumor xenograft growth in vivo
Experimental: (§3) Tumor volume, tumor weight, and body weight were measured. Protein lysates were isolated from the tumors and analyzed for AR and AR-V7 expression by Western blot. […] “AR-Variants” represents a combination of all forms of AR. * denotes p<0.05.
(§4) Protein lysates were isolated and analyzed for AR and AR-V7 expression by Western blot.

[7] = tested on: AR; experiment: Western blot of AR in CWR22Rv1 xenograft tumor lysates; assay type: in vivo; settings: CWR22Rv1 xenograft lysates vs controls, FIG. 13D
Experimental: as §3, §4

[8] = tested on: LuCaP 35CR PDX xenograft; experiment: LuCaP 35CR PDX tumor model, oral administration; assay type: in vivo, mice
Source text: For the data shown in FIG. 19A, a LuCaP 35CR PDX model was established in male castrated SCID mice. […] Tumor and body weights are shown in FIGS. 19B and 19C, respectively.

[9] = biological target: T3, AR-V1 (Homo sapiens, UniProt P10275); experiment: PSA-luc assay in C4-2B cells, AR-V1; assay type: cell-based; settings: FBS, 1 μM overnight, FIG. 14B
T3 construct: expressed in transfected cells; host or cells: C4-2B
Source text: (§5) C4-2B cells were cotransfected with pcDNA, with or without AR-V1, AR-V3, AR-V7, AR-V9 or AR-V12, and with PSA-E/P-luciferase plasmids in FBS condition.

[10] = tested on: C4-2-V7 cells; experiment: Cell growth assay (cell numbers), C4-2-V7; assay type: cell-based; settings: C4-2-V7, 0.5 μM + enzalutamide, 48 hours, FIG. 7D
[11] = biological target: T4, AR-FL (Homo sapiens, UniProt P10275, T878A); experiment: PSA-luc assay in C4-2B cells (pcDNA), AR-FL; assay type: cell-based; settings: FBS, 1 μM overnight, FIG. 14A
T4 construct: endogenous in cells; host or cells: C4-2B cells transfected with pcDNA and the PSA-E/P-luciferase reporter
Source text: as §5

[12] = biological target: T2, AR-V7; experiment: Western blot of AR-V7 in CWR22Rv1 xenograft tumor lysates; assay type: in vivo; design: endogenous in cells; host or cells: CWR22Rv1 prostate cancer cells (also grown as xenograft tumours); settings: CWR22Rv1 xenograft lysates vs controls, FIG. 13D
Experimental: as §3, §4

[13] = biological target: T2, AR-V7; experiment: Western blot of AR-V7 expression in CWR22Rv1 cell lysates; assay type: cell-based; design: endogenous in cells; host or cells: CWR22Rv1 prostate cancer cells (also grown as xenograft tumours); settings: CWR22Rv1 cells, FIG. 2A
Experimental: as §1, §2

T1 sequence (P10275 whole entry K581R): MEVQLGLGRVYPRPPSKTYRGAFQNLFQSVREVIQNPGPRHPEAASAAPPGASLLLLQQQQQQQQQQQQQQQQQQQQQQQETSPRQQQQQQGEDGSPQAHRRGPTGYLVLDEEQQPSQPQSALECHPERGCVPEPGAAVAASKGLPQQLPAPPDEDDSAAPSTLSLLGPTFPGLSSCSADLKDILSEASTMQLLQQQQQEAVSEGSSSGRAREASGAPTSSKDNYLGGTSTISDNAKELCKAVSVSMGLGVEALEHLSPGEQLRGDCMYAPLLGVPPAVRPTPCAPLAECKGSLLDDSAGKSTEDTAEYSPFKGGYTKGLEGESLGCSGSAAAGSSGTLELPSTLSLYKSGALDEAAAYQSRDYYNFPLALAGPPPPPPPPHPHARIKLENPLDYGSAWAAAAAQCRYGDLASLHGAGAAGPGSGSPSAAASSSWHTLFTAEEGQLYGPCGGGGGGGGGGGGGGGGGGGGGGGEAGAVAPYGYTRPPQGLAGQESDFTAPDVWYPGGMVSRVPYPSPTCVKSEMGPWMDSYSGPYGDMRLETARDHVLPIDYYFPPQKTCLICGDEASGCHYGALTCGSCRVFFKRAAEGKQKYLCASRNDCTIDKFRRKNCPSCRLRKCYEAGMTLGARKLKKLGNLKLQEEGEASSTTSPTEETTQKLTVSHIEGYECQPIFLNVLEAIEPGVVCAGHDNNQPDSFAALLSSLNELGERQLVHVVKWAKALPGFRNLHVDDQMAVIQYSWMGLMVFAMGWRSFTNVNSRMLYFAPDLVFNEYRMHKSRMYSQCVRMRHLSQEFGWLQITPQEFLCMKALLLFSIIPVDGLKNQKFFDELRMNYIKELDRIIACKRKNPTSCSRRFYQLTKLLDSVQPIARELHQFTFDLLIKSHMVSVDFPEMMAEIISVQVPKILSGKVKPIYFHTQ
T3 sequence (P10275 1-648 isoform P10275-4): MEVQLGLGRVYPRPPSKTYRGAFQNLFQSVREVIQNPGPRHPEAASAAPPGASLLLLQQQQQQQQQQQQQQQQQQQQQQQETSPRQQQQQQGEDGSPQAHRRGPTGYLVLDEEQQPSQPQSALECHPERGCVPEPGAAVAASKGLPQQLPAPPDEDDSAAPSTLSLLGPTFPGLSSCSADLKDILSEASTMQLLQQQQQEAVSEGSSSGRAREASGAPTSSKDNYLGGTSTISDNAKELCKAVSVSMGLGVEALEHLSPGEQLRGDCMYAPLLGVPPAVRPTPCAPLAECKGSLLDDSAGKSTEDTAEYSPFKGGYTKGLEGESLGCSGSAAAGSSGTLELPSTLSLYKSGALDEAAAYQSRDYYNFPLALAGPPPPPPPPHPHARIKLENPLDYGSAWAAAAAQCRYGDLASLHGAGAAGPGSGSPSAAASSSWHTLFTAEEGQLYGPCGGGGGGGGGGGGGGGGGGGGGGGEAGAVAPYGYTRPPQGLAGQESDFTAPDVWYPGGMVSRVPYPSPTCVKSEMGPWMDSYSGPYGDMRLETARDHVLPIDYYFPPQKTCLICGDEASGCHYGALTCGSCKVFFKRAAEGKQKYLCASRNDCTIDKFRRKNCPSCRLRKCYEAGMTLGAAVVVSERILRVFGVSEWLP
T4 sequence (P10275 whole entry T878A): as the sequence (P10275 whole entry K581R) above, with R581K, T878A counted along it

| Compound | K581R mutant AR transactivation [1] | cell proliferation, combination with enzalutamide (MDV) [2] | cell growth [2] | AR-V7 mediated PSA-luc activity [3] | AUC(0-inf) [4] | AUC_% Extrap_obs [4] | HL_Lambda_z [4] | AR expression [5] | AR-V1-mediated PSA-luc activity [9] | cell proliferation, combination with enzalutamide (MDV) [10] | AR-FL-mediated transcriptional activity (PSA-luc) [11] | AR-V7 (AR variant) expression [13] | other results |
| --- | --- | --- | --- | --- | --- | --- | --- | --- | --- | --- | --- | --- | --- |
| O=C(Nc1ccc(C(F)(F)F)cc1Cl)c1cc(Cl)ccc1O [Compound 7] | significantly blocked | further inhibited | able to inhibit cell growth in a dose-dependent manner | inhibited | 4.28 µM·h | 15.35 +/− 3.08% | 580.54 ± 86.4 min | inhibited | inhibited | further inhibited | inhibited | inhibited | body weight ([6]; FIG. 13B): without inhibition of body weight; tumor growth ([6]; FIGS. 13A-13C): significantly inhibited; AR protein expression in tumors [7]: significantly inhibited; serum PSA levels compared with niclosamide ([8]; both p.o. 150 mg/kg): to a greater extent than niclosamide; anti-tumor activity (tumor volume) compared with niclosamide ([8]; both p.o. 150 mg/kg, 150 mg/kg): to a greater extent than niclosamide; also recorded: better anti-tumor activity than niclosamide; tumor growth ([8]; castrated SCID mice, p.o. 150 mg/kg, 4 weeks, FIG. 19, 150 mg/kg): significantly inhibited; also recorded: suppressed; body weight ([8]; castrated SCID mice, p.o. 150 mg/kg, 4 weeks, FIG. 19C): without inhibition of body weight; PSA protein expression in mouse sera ([8]; p.o. 150 mg/kg, 4 weeks, FIG. 19D): inhibited; AR-V7 protein expression in tumors [12]: significantly inhibited |
| C=CC(=O)Oc1ccc(Cl)cc1C(=O)Nc1ccc([N+](=O)[O-])cc1Cl [Compound 31] | significantly blocked | further inhibited | able to inhibit cell growth in a dose-dependent manner | inhibited | 6.48 µM·h | 2.3 +/− 1.85% | 276.51 ± 92.17 min | inhibited | inhibited | further inhibited | inhibited | inhibited | AUC(0-t) [4]: 6.37 µM·h; Cmax [4]: 2690 nM; Tmax [4]: 25 min; Cmax ([4]; Cmax): 2680 nM |
